Reference: patent US9365522B2, “Pyrazole amide derivative” (AMGEN INC., priority 2015, dated 2016)

Biological target: T1, ligand binding domain of human ROR gamma (Homo sapiens, UniProt P51449)
T1 construct: NM_001001523; expressed in transfected cells; host or cells: HEK293T
T1 sequence (P51449 247-497 isoform P51449-2): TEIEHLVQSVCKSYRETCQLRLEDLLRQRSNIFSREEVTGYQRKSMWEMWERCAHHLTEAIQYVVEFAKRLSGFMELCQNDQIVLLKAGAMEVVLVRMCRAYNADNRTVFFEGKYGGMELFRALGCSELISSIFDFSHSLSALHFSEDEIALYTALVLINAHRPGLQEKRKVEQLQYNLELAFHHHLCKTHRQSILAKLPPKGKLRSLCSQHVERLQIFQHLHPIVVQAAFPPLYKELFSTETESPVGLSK
Assay: ROR gamma reporter gene assay (GAL4-RORγ LBD luciferase, Dual-Glo)
Format: cell-based
Details: HEK293T cells transfected with pM-ROR gamma, 8 concentrations 3.5 nM to 10.5 μM, 24 h incubation; for IC50: read-out: result (pIC50, inhibition of RORγ transcriptional activity) (converted)
Outline: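 HEK293T cells co-transfected with GAL4-DBD fused to human RORγ LBD (aa 247-497), 5×UAS firefly luciferase reporter and CMV-renilla, in charcoal-stripped serum.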

| Structure (SMILES) | IC50 [pM] | result (pIC50, inhibition of RORγ transcriptional activity) |
| --- | --- | --- |
| CC12CCC(CN(CC(=O)c3c(Cl)cncc3Cl)C(=O)c3cnn([C@H]4CC[C@H](C(=O)O)CC4)c3C(F)(F)F)(CC1)O2 [Example 160, trans-4-(4-((2-(3,5-dichloropyridin-4-yl)-2-oxoethyl)-((1-methyl-7-oxabicyclo[2.2.1]heptan-4-yl)methyl)carbamoyl)-5-(trifluoromethyl)pyrazol-1-yl)cyclohexane-1-carboxylic acid] | 24500 |  |
| CC1(C)[C@@H]2C[C@H](N(CC(=O)c3c(Cl)cccc3C(F)(F)F)C(=O)c3cnn([C@H]4CC[C@](C)(C(=O)O)CC4)c3C(F)(F)F)C[C@@H]21 [Example 222, trans-4-(4-((2-(2-chloro-6-(trifluoromethyl)phenyl)-2-oxoethyl)-((1R,3r,5S)-6,6-dimethyl-3-bicyclo[3.1.0]hexanyl)carbamoyl)-5-(trifluoromethyl)pyrazol-1-yl)-1-methylcyclohexane-1-carboxylic acid] | 4170 |  |
| CC1(C)CC[C@@H](CN(CC(=O)c2c(Cl)cncc2Cl)C(=O)c2cnn([C@H]3CC[C@H](C(=O)O)CC3)c2C(F)(F)F)O1 (relative stereo) [Example 14, trans-4-(4-((2-(3,5-dichloropyridin-4-yl)-2-oxoethyl)(((S)-5,5-dimethylTHF-2-yl)methyl)carbamoyl)-5-(trifluoromethyl)-1H-pyrazol-1-yl)cyclohexanecarboxylic acid] |  | 7.12 |
| O=C(CN(Cc1ccncc1)C(=O)c1cnn([C@H]2CC[C@H](C(=O)O)CC2)c1C(F)(F)F)c1c(Cl)cncc1Cl [Example 76, trans-4-(4-((2-(3,5-dichloropyridin-4-yl)-2-oxoethyl)(pyridin-4-ylmethyl)carbamoyl)-5-(trifluoromethyl)-1H-pyrazol-1-yl)cyclohexanecarboxylic acid] | 1.7e+06 |  |
| CN1C2CCC1CC(N(CC(=O)c1c(Cl)cc(F)cc1Cl)C(=O)c1cnn([C@H]3CC[C@](C)(C(=O)O)CC3)c1C(F)(F)F)C2 (stereo partly drawn) [Example 303, trans-4-(4-((2-(2,6-dichloro-4-fluorophenyl)-2-oxoethyl)-(8-methyl-8-azabicyclo[3.2.1]octan-3-yl)carbamoyl)-5-(trifluoromethyl)pyrazol-1-yl)-1-methylcyclohexane-1-carboxylic acid] | > 3.47e+06 |  |
| CC1(C)[C@@H]2C[C@H](N(C[C@H](O)c3ncccc3Cl)C(=O)c3cnn([C@H]4CC[C@](C)(C(=O)O)CC4)c3C(F)(F)F)C[C@@H]21 [Example 390, trans-4-(4-((2-(3-chloropyridin-2-yl)-2-hydroxyethyl)((1R,3r,5S)-6,6-dimethylbicyclo[3.1.0]hexan-3-yl)carbamoyl)-5-(trifluoromethyl)-1H-pyrazol-1-yl)-1-methylcyclohexanecarboxylic acid] | 331000 |  |
| O=C(CN(Cc1cc(F)ccc1F)C(=O)c1cnn([C@H]2CC[C@H](C(=O)O)CC2)c1C(F)(F)F)c1c(Cl)cncc1Cl [Example 45, trans-4-(4-((2-(3,5-dichloropyridin-4-yl)-2-oxoethyl)(2,5-difluorobenzyl)carbamoyl)-5-(trifluorornethyl)-1H-pyrazol-1-yl)cyclohexanecarboxylic acid] | 58900 |  |

The next lines start with results.

| IC50 [pM] | Structure (SMILES) | result (pIC50, inhibition of RORγ transcriptional activity) |
| --- | --- | --- |
| 11200 | C[C@]1(C(=O)O)CC[C@H](n2ncc(C(=O)N(CC(=O)c3c(Cl)cncc3Cl)CC3(F)CCCC3)c2C(F)(F)F)CC1 [Example 272, trans-4-(4-((2-(3,5-dichloropyridin-4-yl)-2-oxoethyl)-((1-fluorocyclopentyl)methyl)carbamoyl)-5-(trifluoromethyl)pyrazol-1-yl)-1-methylcyclohexane-1-carboxylic acid] |  |
| > 1e+07 | Cn1nc(Cl)c(C(=O)CN(Cc2cc(F)cc(F)c2)C(=O)c2cnn([C@H]3CC[C@H](C(=O)O)CC3)c2C(F)(F)F)c1Cl [Example 201, trans-4-(4-((2-(3,5-dichloro-1-methylpyrazol-4-yl)-2-oxoethyl)-((3,5-difluorophenyl)methyl)carbamoyl)-5-(trifluoromethyl)pyrazol-1-yl)cyclohexane-1-carboxylic acid] |  |
| 9770 | CC1(C)[C@@H]2C[C@H](N(CC(=O)c3c(Cl)cccc3Cl)C(=O)c3cnn(C45CCC(C(=O)O)(CC4)CC5)c3C(F)(F)F)C[C@@H]21 [Example 320, 4-(4-((2-(2,6-dichlorophenyl)-2-oxoethyl)((1R,3r,5S)-6,6-dimethylbicyclo[3.1.0]hexan-3-yl)carbamoyl)-5-(trifluoromethyl)-1H-pyrazol-1-yl)bicyclo [2.2.2] octane-1-carboxylic acid] |  |
| < 3470 | Cc1cc(Cl)c(C(=O)CN(CC2CC(C)(C)C2)C(=O)c2cnn(C34CCC(C(=O)O)(CC3)CC4)c2C(F)(F)F)c(Cl)c1 [Example 237, 4-(4-((2-(2,6-dichloro-4-methylphenyl)-2-oxoethyl)-((3,3-dimethylcyclobutyl)methyl)carbamoyl)-5-(trifluoromethyl)pyrazol-1-yl)bicyclo[2.2.2]octane-1-carboxylic acid] |  |
| 83200 | CC1(C)CCC(N(CC(=O)c2c(Cl)cc(F)cc2Cl)C(=O)c2cnn([C@H]3C[C@](C)(C(=O)O)C3)c2C(F)(F)F)CC1 [Example 339, trans-3-(4-((2-(2,6-dichloro-4-fluorophenyl)-2-oxoethyl)-(4,4-dimethylcyclohexyl)carbamoyl)-5-(trifluoromethyl)pyrazol-1-yl)-1-methylcyclobutane-1-carboxylic acid] |  |
| 17000 | COc1cccc(Cl)c1C(=O)CN(C(=O)c1cnn([C@H]2CC[C@](C)(C(=O)O)CC2)c1C(F)(F)F)[C@H]1C[C@@H]2[C@H](C1)C2(C)C [Example 232, trans-4-(4-((2-(2-chloro-6-methoxyphenyl)-2-oxoethyl)-((1R,3r,5S)-6,6-dimethyl-3-bicyclo(3.1.0)hexanyl)carbamoyl)-5-(trifluoromethyl)pyrazol-1-yl)-1-methylcyclohexane-1-carboxylic acid] |  |
| 398000 | O=C(CN(Cc1ccco1)C(=O)c1cnn([C@H]2CC[C@H](C(=O)O)CC2)c1C(F)(F)F)c1c(Cl)cncc1Cl [Example 46, trans-4-(4-((2-(3,5-dichloropyridin-4-yl)-2-oxoethyl)(furan-2-ylmethyl)carbamoyl)-5-(trifluoromethyl)-1H-pyrazol-1-yl)cyclohexanecarboxylic acid] |  |
| 25700 | O=C(c1cnn([C@H]2CC[C@H](C(=O)O)CC2)c1C(F)(F)F)N(Cc1cc(F)cc(F)c1)CC(F)(F)c1c(Cl)cncc1Cl [Example 10, trans-4-(4-((2-(3,5-dichloropyridin-4-yl)-2,2-difluoroethyl)(3,5-difluorobenzyl)carbamoyl)-5-(trifluoromethyl)-1H-pyrazol-1-yl)cyclohexanecarboxylic acid] |  |
| 100000 | CC1(C)CC(CN(CC(=O)c2c(Cl)cncc2Cl)C(=O)c2cnn([C@H]3CC[C@](C)(C(=O)O)CC3)c2Cl)C1 [Example 381, trans-4-(5-chloro-4-((2-(3,5-dichloropyridin-4-yl)-2-oxoethyl)-((3,3-dimethylcyclobutyl)methyl)carbamoyl)pyrazol-1-yl)-1-methylcyclohexane-1-carboxylic acid] |  |
